Reference: PMC10374545, “A small molecule inhibitor of PTP1B and PTPN2 enhances T cell anti-tumor immunity” (Nature Communications, 2023)
Several values for one entry are separate records, joined by “and”; a condition that tells them apart may be missing. Equal values may be shown once.

Assays:
[1] = biological target: T1, PTP1B (Homo sapiens, UniProt P18031); experiment: Mode of inhibition and Ki, Lineweaver-Burk kinetic analysis with DiFMUP; format: biochemical
T1 construct: PTP1B, residues 1-321; made in house; host or cells: E. coli BL21(DE3)
T1 sequence (P18031 1-321): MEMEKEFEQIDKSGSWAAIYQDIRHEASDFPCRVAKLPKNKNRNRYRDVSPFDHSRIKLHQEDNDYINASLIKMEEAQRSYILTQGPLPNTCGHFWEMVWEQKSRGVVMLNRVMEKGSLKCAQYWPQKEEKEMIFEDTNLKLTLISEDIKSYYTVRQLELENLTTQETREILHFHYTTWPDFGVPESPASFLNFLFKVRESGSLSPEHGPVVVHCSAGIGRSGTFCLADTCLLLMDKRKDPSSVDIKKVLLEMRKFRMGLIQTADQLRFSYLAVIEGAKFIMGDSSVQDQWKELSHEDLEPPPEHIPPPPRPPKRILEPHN
Method: To determine the mode of inhibition, the reactions were initiated by the addition of enzyme (final concentration for PTP1B and PTPN2 was 0.05 nM) to the reaction mixtures (0.2 ml) containing various concentrations of DiFMUP with different concentrations of the inhibitor. […] The fluorescence signal was measured using a CLARIOstar Plus Microplate Spectrophotometer (BMG Labtech) using excitation and emission wavelength of 340 nm and 450 nm, respectively. Data were fitted using Prism GraphPad 9.2.0. For selectivity studies, the inhibition assay for other PTPs were performed under the same conditions as used for PTP1B and PTPN2 except with different DiFMUP concentration corresponding to the Km of the PTP studied.

[2] = system: AT3-OVA mammary tumors; experiment: Tumor-infiltrating lymphocytes in AT3-OVA tumors (flow cytometry); format: in vivo, mouse; design: GRZMB, single mice / GRZMB, individual mice: unit not given here
Method: Single-cell suspensions from spleens and lymph nodes were obtained as described previously. For the detection of intracellular cytokines and granzyme B, T cells were fixed and permeabilized with the BD Cytofix/Cytoperm kit according to the manufacturer’s instructions. Briefly, T cells were first surface stained with fluorophore-conjugated antibodies and then fixed followed by permeabilization on ice for 20 min. Fixed and permeabilized cells were stained for IFN-γ, TNF, and granzyme B for 45 min at room temperature. For the detection of intracellular FoxP3 the Foxp3/Transcription Factor Staining Buffer Set (eBioscience) was used according to the manufacturer’s instructions. Briefly, cells were fixed and permeabilized for 1 h on ice followed by intracellular staining at room temperature for 45 min. For the detection of serum cytokines, the BD CBA Mouse Inflammation Kit™ was used according to the manufacturers’ instructions.
Cells (1 × 10^6/10 µl) were stained with the specified antibodies on ice for 30 min in D-PBS supplemented with 2% FBS in the dark and analyzed using a Fortessa or Symphony A3 (BD Biosciences). Data was acquired using BD FACS DIVA Software v8.0.1 and analyzed using FlowJo10 (Tree Star Inc.) software. Lymphocytes were gated for eYFP^+ cells to discriminate between PTPN2 sufficient and PTPN2 negative cells after poly(I:C)-induced PTPN2-deletion in Mx1-Cre;Ptpn2^fl/fl mice. For cell quantification, known numbers of Flow-Count Fluorospheres (Beckman Coulter) were added to samples before analysis. Dead cells were excluded with propidium iodide (1 μg/ml; Sigma-Aldrich). Paraformaldehyde fixed dead cells were excluded with the LIVE/DEAD™ Fixable Near-IR Dead Cell Stain Kit (Thermo Fisher Scientific).
Tumor-bearing mice were sacrificed and tumors were excised and digested at 37 °C for 30 min using a cocktail of 1 mg/ml collagenase type IV (Worthington Biochemicals) and 0.02 mg/ml DNase I (Sigma-Aldrich) in DMEM supplemented with 2% (v/v) FBS. Cells were passed through a 70 μm cell strainer (BD Biosciences) twice and processed for flow cytometry. For assessing T cell activation, cells were surface stained with fluorophore-conjugated antibodies to CD62L, CD44, PD-1, and TIM-3. For the assessment of NK cells, B cells, myeloid-derived suppressor cells (MDSCs), dendritic cells (DCs), and tumor-associated macrophages, cells were surface stained with fluorophore-conjugated antibodies to NK1.1, TCRβ, CD19, CD11b, CD11c, F4/80, Ly6C and Ly6G. For the detection of intracellular cytokines TNF and IFNγ, T cells were stimulated with PMA (20 ng/ml; Sigma-Aldrich) and ionomycin (1 μg/ml; Sigma-Aldrich) in the presence of GolgiPlug™ and GolgiStop™ (BD Biosciences) for 4 h at 37 °C in complete T cell medium. For the intracellular detection of granzyme B, cells were processed untreated without the addition of BD GolgiPlug™ and BD GolgiStop™.

[3] = C57BL/6, CMP-182 10 mg, n=8, Figure 5C
[4] = C57BL/6, CMP-182 10 mg, n=8, Figure 5D, in % (unit assumed)
[5] = C57BL/6, CMP-182 10 mg, n=8, Figure 5E
[6] = tumor-infiltrating CD8+ T cells, 10 mg/kg i.v., Fig. 3D raw data, listed as CMP-182, 10 mg/kg

CC(C)(O)CCOc1ccc2cc(O)c(N3CC(=O)NS3(=O)=O)c(F)c2c1 [Compound 182, 5-(1-Fluoro-3-hydroxy-7-(3-hydroxy-3-methylbutoxy)naphthalen-2-yl)−1,2,5-thiadiazolidin-3-one 1,1-dioxide]
mode of inhibition [1]: classic competitive inhibitor
TILs in AT3-OVA tumors ([2]; 10 mg/kg i.v.): increased TILs
accumulation of NK cells and B cells in AT3-OVA tumors ([2]; 10 mg/kg i.v.): increased the accumulation
accumulation of Tregs and MDSCs in AT3-OVA tumors ([2]; 10 mg/kg i.v.): promoted the accumulation
MDSCs, individual mice ([2]; C57BL/6, CMP-182 10 mg, n=7, Figure 5E): 48747.9 and 7096.22 and 17089.1 and 45092.3 and 47664.4 and 17646.1 and 31607.3
CD4 EM, individual mice [2, 3]: 134557 and 47922.8 and 133424 and 44428.9 and 44587.5 and 55436.2 and 44822.8 and 60817.2
CD8 EM, individual mice [2, 3]: 845401 and 186403 and 749030 and 169324 and 169003 and 192622 and 192657 and 178436
GRZMB, individual mice ([2]; C57BL/6, CMP-182 10 mg, n=8, Figure 5D): 25.6 and 28.7 and 25.8 and 29.2 and 51.4 and 33.2 and 36 and 28.4
IFNg TNF, individual mice [2, 4]: 24.8 and 30.6 and 32 and 36.2 and 36.6 and 36.4 and 24 and 30.7
PD-1 TIM-3, individual mice [2, 4]: 77.9 and 62.8 and 78.4 and 65.6 and 64.1 and 65.4 and 72.7 and 54.7
B cells, individual mice [2, 5]: 170944 and 179918 and 255526 and 193357 and 175857 and 145133 and 135399 and 202633
NK cells, individual mice [2, 5]: 58558.9 and 29752.3 and 40599.7 and 35764.2 and 59533.6 and 52754.4 and 30362.6 and 33110.9
Tregs, individual mice [2, 5]: 74115.4 and 20349.3 and 83872.7 and 21555.9 and 26849.8 and 29117.6 and 19831.6 and 35834.4
CD4 CM TILS (median) ([2]; Figure 3B, column B, n=8): 11958, n=8
CD4 EM TILS (median) ([2]; Figure 3B, column B, n=8): 57270, n=8
CD8 CM TILS (median) ([2]; Figure 3B, column B, n=8): 16228, n=8
CD8 EM TILS (median) ([2]; Figure 3B, column B, n=8): 275442, n=8
B cells TILS (median) ([2]; Figure 3C, column B, n=8): 364105, n=8
MDSCs TILS (median) ([2]; Figure 3C, column B, n=8): 8604, n=8
Nk cells TILS (median) ([2]; Figure 3C, column B, n=8): 52917, n=8
Tregs TILS (median) ([2]; Figure 3C, column B, n=8): 35282, n=8
GRZB TILS (median) ([2]; Figure 3D, column B, n=8): 35.20, n=8
IFNg TNF TILS (median) ([2]; Figure 3D, column B, n=8): 31.60, n=8
PD-1 Lag-3 TILS (median) ([2]; Figure 3D, column B, n=8): 35.10, n=8
PD-1 TIM-3 TILS (median) ([2]; Figure 3D, column B, n=8): 50.75, n=8
GRZMB, single mice [2, 6]: 38.7 and 39 and 35.1 and 25.9 and 27.7 and 35.3 and 28.6 and 36.2
PD-1 LAG-3, single mice [2, 6]: 39.6 and 36.2 and 34 and 27 and 25.2 and 33.5 and 41.6
PD-1 TIM-3, single mice ([2]; tumor-infiltrating CD8+ T cells, 10 mg/kg i.v., Fig. 3D raw data, listed as CMP-182, 10 mg/kg, in % (unit assumed)): 64.6 and 50.1 and 56.3 and 51.4 and 49.7 and 42.6 and 48.5 and 63
